For one test, the system named is NCI-ADR/RES. More on the design: method as in PMID 31894828. The conditions noted are these: MDR cell line, high P-gp; read-out: growth inhibition (GI50) NCI/ADR-RES; cited from earlier work.
For test [1], the system named is NCI-H460, NCI-H460/R, DLD1 and DLD1-TxR spheroids. The test is described as follows: Spheroid morphology (AnaSP image analysis). The format is cell-based, human. The conditions noted are these: 48 h; GI50 and 2 × GI50. The protocol:
Spheroid formation was conducted in 12-series agarose 3D Petri Dish micromolds (MicroTissues Technology, MicroTissues Inc., Sigma-Aldrich). The agarose micromolds were prepared using 1% agarose in a 0.9% NaCl solution and then placed in 12-well plates and equilibrated with RPMI supplemented with 10% FBS for at least 2 h before cell seeding. Cell suspensions corresponding to 500 cells per spheroid of the NSCLC cell lines (NCI-H460 and NCI-H460/R), and 1000 cells per spheroid of the colorectal cancer cell lines (DLD1 and DLD1-TxR) were seeded in the corresponding micromolds. The choice of cell seeding concentration was based on a previous optimization assay (data not shown), ensuring that at the end of the assay the spheroids would have a size of around 400 μm. A 20 min incubation period was used for cells to settle into the micromolds and additional medium was finally added to the wells. Spheroid formation was monitored with the Leica DMi1 microscope. […] At the end of the treatment, images from at least 8 different spheroids per condition were captured on the Leica Dmi1 microscope, and posteriorly analyzed with the automated open-source software AnaSP.[82] Spheroid parameters, such as equivalent diameter, circularity, and compactness, were calculated.
S3.6 Effect of 25 on spheroids from NSCLC and colorectal cancer (Figure S67) […]
2GI50 concentrations previously determined in a 2D setting. […]

A further test concerns NCI-H460 cells. The test is described as follows: Western blot protein expression analysis. The format is cell-based, human. The protocol: Western blot analysis was performed to evaluate the expression of known proteins associated with cell proliferation, cell cycle, apoptosis, and DNA damage (Figure 10).
Figure 10 Effect of compound 25 on the NCI-H460 cellular expression of proteins involved in proliferation, cell death and DNA damage, analyzed by Western Blotting. […] (B) Graphical representation of the expression of proteins analyzed. β-actin was used as loading control. Results are the mean ± SEM from 3 independent experiments. * p ≤ 0.05, ** p ≤ 0.01 when comparing DMSO vs compound treatment.
After this treatment, cells were centrifuged at 1200 rpm for 5 min at 4 °C, and then lysed in Wynman’s buffer, as previously described,[79] containing EDTA-free protease (Roche, Basel, Switzerland) and phosphatase inhibitors (Merck Life Science) for 30 min with agitation and at 4 °C. Protein lysates were obtained after centrifugation at 13 000 rpm, for 10 min at 4 °C, and stored at −20 °C until used. A modified Lowry protocol, DC Protein assay kit (Bio-Rad, Hercules, California, USA), was used to quantify the total protein content (using a BSA standard calibration curve). The absorbance was analyzed with the Gen5 software on the microplate reader Synergy Mx, […].
Then 20 μg of protein per treatment condition was loaded and separated in 12% SDS-PAGE gels and electrophoretically transferred into nitrocellulose membranes (GE Healthcare Life Science, Chalfont St Giles, UK) for 2 h using a Mini Trans-Blot Cell system (Bio-Rad). The membranes were then stained with Ponceau S solution (PanReac AppliChem, Barcelona, Spain) to confirm that proper protein transfer occurred. Then, the membranes were blocked in Tris-buffered saline solution (TBS) pH 7.4 containing 5% (w/v) nonfat dry milk (Molico, Nestlé, Vevey, Switzerland) or 5% (w/v) BSA for 2 h at RT. The membranes were incubated for 90 min at RT with the following primary antibodies: caspase-3 (1:200; sc-56053), cyclin D1 (1:200; sc-8396), cyclin E (1:100; sc-377100), p21 (1:200; sc-6246), p53 (1:200; sc-126), PARP-1 (1:200; sc-8007), p-Histone H2A.X (1:200; sc-517348), TP53BP1 (1:100; sc-515841), and β-actin (1:200; sc-13118) from Santa Cruz Biotechnology, Dallas, Texas, USA. Following washing steps in TBS-T, the membranes were incubated with their respective secondary antibodies, antimouse IgG horseradish peroxidase (HRP) (Cytiva, Marlborough, Massachusetts, USA) or antirabbit IgG-HRP (Cytiva) for 1 h at RT in an orbital shaker. […] The signal was detected with a Fuji Medical Film Processor (FPM-100A model), and the immunoblots were digitalized using the GS-800 calibrated densitometer (Bio-Rad). Band quantification was carried out with Software Image Lab version 6.0.1 (Bio-Rad), and the molecular weight of protein bands were estimated by comparison with the bands from a protein marker (PageRuler Plus Prestained Protein Ladder, 10−250 kDa, Thermo Fisher Scientific).
A general note: A western blot detects proteins with antibodies after separation by electrophoresis.

The structures appear in SMILES notation.

`COC(=O)c1c2c(c(C)[n+]([O-])c1C)C(=O)C=C(NCc1ccccc1)C2=O` [Compound 2]: the GI50 in the test with NCI-ADR/RES was 535 nM.
As to `COC(=O)c1c2c(c[n+]([O-])c1C)C(=O)C=C(NCc1ccccc1)C2=O` [Compound 25], in test [1], the “spheroid morphological properties (diameter, compactness, circularity)” value is listed as “did not display statistical differences in the AnaSP-calculated morphological properties”. Further, in the test on NCI-H460 cells (48 h), the “cyclin D1 expression” value is on record as “increased the expression of cyclin D1 (although not statistically significantly)” and the p53 expression result is given as “slightly increased the expression of p53, although not statistically significant”. Also, in the test with NCI-H460 cells (48 h, 0.35 and 0.7 μM), the PARP-1 expression result is “does not alter the expression levels of PARP-1”. Also, the p21 expression entry with NCI-H460 cells (48 h, 2 × GI50) was “clearly increased the expression of p21”. For the same compound, the procaspase-3 expression entry in the test on NCI-H460 cells (48 h, both 0.35 and 0.7 μM) is on record as “significant decrease in procaspase-3”. The “TP53BP1 and p-histone H2A.X expression” value in the test on NCI-H460 cells (higher concentration tested, not statistically significant) was “increased the expression levels of TP53BP1 and of the p-histone H2A.X”. The “p62, LC3-I and LC3-II expression” value with NCI-H460 cells (preliminary, data not shown) was “did not alter the expression levels of p62, LC3-I. and LC3-II”.

The values above are taken from PMC11345829, “Discovery of Potent Isoquinolinequinone N-Oxides to Overcome Cancer Multidrug Resistance” (Journal of Medicinal Chemistry, 2024).
